Measurements taken from patent publication US20200030349A1, “PHYSIOLOGICALLY ACTIVE PREPARATION COMPRISING N-ACETYL-GLUCOSAMINE FOR THE TREATMENT OF BACK PAIN” (Natural Products & Drugs GmbH, priority 2017, published 2020).

Columns and labels:
stability in solution = type: physicochemical; conditions: over pH range
Text: (§1) Advantageously according to the invention, the composition for use in a method for the prophylaxis and/or treatment of back pain and the composition comprising at least two components are in the form of an oral dosage form. An oral dosage form is easy to handle and is accepted by a user without problems. In addition, the user can easily take the composition themself. It is preferably a solid form of administration, in particular in the form of capsules, tablets, dragées, granules and powders. Addition of the composition to functional foods, such as a bar for healthy nutrition, is also possible. Alternatively or in addition, a liquid dosage form, in particular in the form of drops, stable solutions and/or juices, is also possible.

water solubility = type: physicochemical
Text: as §1

CC(=O)N[C@H]1C(O)O[C@H](CO)[C@@H](O)[C@@H]1O (stereo partly drawn) [N-acetyl-glucosamine, N-acetyl-D-glucosamine]
stability in solution (stability in solution): stable in solution over a wide pH range
water solubility (water solubility): good water solubility
